Experimental data as given in US20100029604A1, “ANTIBACTERIAL COMBINATION AND ITS USE” (priority 2007, published 2010).
Values after ≈ are worked out from the molar mass of the structure shown.

What was measured:
[1] = tested on: Escherichia coli TEM-31; assay: MIC, characterised β-lactamase producing strain (Example 5, Tables 5-7); type: cell-based
Method: (§1) The MIC experiments were performed in duplicate in 96-well microtiter plates using CAMHB. Serial twofold dilutions of each antibiotic either alone or in combination with constant concentration ratio of a β-lactamase inhibitor (2:1) were prepared in CAMHB. The bacterial suspension with final inoculum 10^5 CFU/mL was transferred to the test medium containing the antibacterial substances. In each well of a 96-well microtiter plate was combined 50 μL of bacterial inoculum, 50 μL of antibiotic dilutions (or media for determination of the MIC of the antibiotic in the absence of test compound). Each plate included 4 wells with no bacterial inoculum (negative control) and 4 wells with no test compound and no antibiotic (positive control). The plates were incubated at 35° C. for 24 h. Purity check and colony counts on each inoculum suspension was performed to ensure that the final inoculum concentration routinely obtained closely approximates 5×10^5 CFU/mL. In addition the assay is routinely monitored by testing standard antibiotics and ensuring that MIC values are within the recommended ranges for the respective strains.
(§2) This test permits comparisons to be made between bacterial growth in the presence of antibiotic alone and bacterial growth in the presence of both an antibiotic and a novel (test) compound.

[2] = tested on: Escherichia coli SHV-2A; assay: as above; type: cell-based
Method: as §1, §2

[3] = tested on: Escherichia coli TEM-3; assay: as above; type: cell-based
Method: as §1, §2

[4] = tested on: Pseudomonas aeruginosa CARB-3; assay: as above; type: cell-based
Method: as §1, §2

[5] = tested on: Escherichia coli SHV-3; assay: as above; type: cell-based
Method: as §1, §2

[6] = tested on: Klebsiella oxytoca K1 highperproduced; assay: as above; type: cell-based
Method: as §1, §2

[7] = tested on: Escherichia coli TEM-35; assay: as above; type: cell-based
Method: as §1, §2

[8] = tested on: Escherichia coli HMS-1; assay: as above; type: cell-based
Method: as §1, §2

[9] = tested on: Escherichia coli OXA-3; assay: as above; type: cell-based
Method: as §1, §2

[10] = tested on: Escherichia coli OXA-2; assay: as above; type: cell-based
Method: as §1, §2

[11] = tested on: E. coli TEM-2; type: cell-based; details: TEM-2, class A, inhibitor constant 4 μg/mL
[12] = tested on: E. cloacae AmpC; assay: Synergy MIC, inhibitor at 4 μg/mL (Example 4); type: cell-based, Enterobacter Cloacae; details: class C, inhibitor constant 4 μg/mL
Method: The in vitro activities of the antibiotics were determined by the broth microdilution method and agar dilution technique as recommended by CLSI guidelines. The MIC experiments were performed in duplicate in 96-well microtiter plates using MHB. Serial twofold dilutions of each antibiotic either alone or in combination with a constant amount (4 μg/mL) of a β-lactamase inhibitor were prepared in MHBII broth. A sterile pipette tip was used to mix the contents of each well (one tip was used going from the low to the high concentration in the same column). The bacterial suspension with final inoculum 10^5 CFU/mL was transferred to the test medium containing the antibacterial substances by a multipoint inoculator (Dynatech, Chantilly, Va., USA). The plates were then incubated at 35° C. for 24 h.
Following procedures identical to those described in Example 3, representative compound of Formula (I) was tested for its ability to enhance antibiotic efficacy against Class C β-lactamase positive bacterial strains that are highly resistant to β-lactam antibiotics. Class C enzymes included AmpC β-lactamases of Enterobacter Cloacae and Citrobacter freundii.

[13] = tested on: Klebsiella pneumoniae CMY-2; assay: MIC, characterised β-lactamase producing strain (Example 5, Tables 5-7); type: cell-based
Method: as §1, with “Serial twofold dilutions of each antibiotic either alone or in combination with constant concentration ratio of a β-lactamase inhibitor (2:1) were prepared in CAMHB.” left out
as §2

[14] = tested on: Escherichia coli TEM-21; assay: as above; type: cell-based
Method: as §1, with “Serial twofold dilutions of each antibiotic either alone or in combination with constant concentration ratio of a β-lactamase inhibitor (2:1) were prepared in CAMHB.” left out
as §2

[15] = tested on: Escherichia coli SHV-4; assay: as above; type: cell-based
Method: as §1, with “Serial twofold dilutions of each antibiotic either alone or in combination with constant concentration ratio of a β-lactamase inhibitor (2:1) were prepared in CAMHB.” left out
as §2

[16] = tested on: Escherichia coli OXA-7; assay: as above; type: cell-based
Method: as §1, with “Serial twofold dilutions of each antibiotic either alone or in combination with constant concentration ratio of a β-lactamase inhibitor (2:1) were prepared in CAMHB.” left out
as §2

[17] = tested on: Escherichia coli FOX-1; assay: as above; type: cell-based
Method: as §1, with “Serial twofold dilutions of each antibiotic either alone or in combination with constant concentration ratio of a β-lactamase inhibitor (2:1) were prepared in CAMHB.” left out
as §2

[18] = tested on: Escherichia coli CMY-2; assay: as above; type: cell-based
Method: as §1, with “Serial twofold dilutions of each antibiotic either alone or in combination with constant concentration ratio of a β-lactamase inhibitor (2:1) were prepared in CAMHB.” left out
as §2

[19] = tested on: Pseudomonas aeruginosa PSE-3; assay: as above; type: cell-based
Method: as §1, with “Serial twofold dilutions of each antibiotic either alone or in combination with constant concentration ratio of a β-lactamase inhibitor (2:1) were prepared in CAMHB.” left out
as §2

[20] = tested on: Escherichia coli TEM-8; assay: as above; type: cell-based
Method: as §1, with “Serial twofold dilutions of each antibiotic either alone or in combination with constant concentration ratio of a β-lactamase inhibitor (2:1) were prepared in CAMHB.” left out
as §2

[21] = tested on: Escherichia coli CMY-7; assay: as above; type: cell-based
Method: as §1, with “Serial twofold dilutions of each antibiotic either alone or in combination with constant concentration ratio of a β-lactamase inhibitor (2:1) were prepared in CAMHB.” left out
as §2

[22] = tested on: Klebsiella oxytoca ATCC 51983; assay: MIC broth microdilution (Example 2); details: ATCC51983
[23] = tested on: Klebsiella pneumoniae ATCC 700603; assay: MIC broth microdilution (Example 2); details: Klebsiella pneumoniae ATCC 700603 producing SHV-18
[24] = Table 6, LK-157 at constant 4 μg/mL in combination
[25] = Table 7, combination at constant concentration ratio (2:1)

For `CO/N=C(\C(=O)N[C@@H]1C(=O)N2C(C(=O)[O-])=C(C[N+]3(C)CCCC3)CS[C@H]12)c1csc(N)n1` [cefepime], the MIC ([1]; Escherichia coli TEM-31, functional group 2br, LK-157 in combination constant 4 μg/mL) was 0.125 µg/mL, the MIC ([2]; functional group 2be, LK-157 in combination constant 4 μg/mL) was 16 µg/mL and the MIC ([3]; Escherichia coli TEM-3, functional group 2be, LK-157 in combination constant 4 μg/mL) was 4 µg/mL. It also gave an MIC ([4]; Pseudomonas aeruginosa CARB-3, functional group 2c, LK-157 in combination constant 4 μg/mL) of 16 µg/mL, an MIC ([5]; Escherichia coli SHV-3, functional group 2be, LK-157 in combination constant 4 μg/mL) of 4 µg/mL and an MIC ([6]; Klebsiella oxytoca K1 highperproduced, functional group 2be, first listed (r47), LK-157 in combination constant 4 μg/mL) of 1 µg/mL. For the same molecule, the MIC ([6]; Klebsiella oxytoca K1 highperproduced, functional group 2be, second listed (r48), LK-157 in combination constant 4 μg/mL) was 4 µg/mL, the MIC ([7]; Escherichia coli TEM-35, functional group 2br, LK-157 in combination constant 4 μg/mL) was 0.125 µg/mL and the MIC ([8]; Escherichia coli HMS-1, functional group 2b, LK-157 in combination constant 4 μg/mL) was 0.125 µg/mL. For the same molecule, the MIC ([9]; Escherichia coli OXA-3, functional group 2d, LK-157 in combination constant 4 μg/mL) was 0.125 µg/mL, the MIC ([10]; Escherichia coli OXA-2, functional group 2d, LK-157 in combination constant 4 μg/mL) was 0.125 µg/mL and the MIC [11] was “≦0.025”. The MIC ([12]; first listed) was 0.8 µg/mL, the MIC ([12]; second listed) was 1.6 µg/mL and the MIC ([12]; third listed) was 1.6 µg/mL.
In the case of `CO/N=C(\C(=O)N[C@@H]1C(=O)N2C(C(=O)O)=C(COC(C)=O)CS[C@H]12)c1csc(N)n1` [cefotaxime], the MIC ([1]; Table 6, Escherichia coli TEM-31, LK-157 at constant 4 μg/mL in combination) is reported as 0.063 µg/mL, the MIC [2, 24] is reported as 8 µg/mL and the MIC ([3]; Table 6, Escherichia coli TEM-3, LK-157 at constant 4 μg/mL in combination) is reported as 16 µg/mL. It also gave an MIC ([4]; Table 6, Pseudomonas aeruginosa CARB-3, LK-157 at constant 4 μg/mL in combination) of 16 µg/mL, an MIC ([5]; Table 6, Escherichia coli SHV-3, LK-157 at constant 4 μg/mL in combination) of 32 µg/mL and an MIC ([6]; Table 6, Klebsiella oxytoca K1 highperproduced, first listed strain, LK-157 at constant 4 μg/mL in combination) of 1 µg/mL. It also gave an MIC ([6]; Table 6, Klebsiella oxytoca K1 highperproduced, second listed strain, LK-157 at constant 4 μg/mL in combination) of 1 µg/mL, an MIC ([7]; Table 6, Escherichia coli TEM-35, LK-157 at constant 4 μg/mL in combination) of 0.031 µg/mL and an MIC ([8]; Table 6, Escherichia coli HMS-1, LK-157 at constant 4 μg/mL in combination) of 0.063 µg/mL. For the same molecule, the MIC ([9]; Table 6, Escherichia coli OXA-3, LK-157 at constant 4 μg/mL in combination) was 0.063 µg/mL, the MIC ([10]; Table 6, Escherichia coli OXA-2, LK-157 at constant 4 μg/mL in combination) was 0.063 µg/mL and the MIC [13, 24] was 16 µg/mL. The MIC [14, 24] was 32 µg/mL, the MIC [15, 24] was 16 µg/mL and the MIC [16, 24] was 0.25 µg/mL. The MIC [17, 24] was 2 µg/mL, the MIC [18, 24] was 32 µg/mL and the MIC [19, 24] was 16 µg/mL. It also gave an MIC [20, 24] of 4 µg/mL, an MIC [21, 24] of 32 µg/mL and an MIC [11] of 0.1 µg/mL (≈ 0.22 µM). For the same molecule, the MIC [22] was 2 to 8 µg/mL (≈ 4.39 to 17.6 µM), the “susceptibility of the strain to the antibiotic” value [23] was “susceptible” and the MIC ([12]; first listed) was greater than 25.6 µg/mL. For the same molecule, the MIC ([12]; second listed) was greater than 25.6 µg/mL and the MIC ([12]; third listed) was greater than 25.6 µg/mL.
`CC(C)(O/N=C(\C(=O)N[C@@H]1C(=O)N2C(C(=O)[O-])=C(C[n+]3ccccc3)CS[C@H]12)c1csc(N)n1)C(=O)O` [ceftazidime] was tested, and the MIC ([1]; Table 7, Escherichia coli TEM-31, combination at constant concentration ratio (2:1)) was 0.25 µg/mL, the MIC [2, 25] was 4 µg/mL and the MIC ([3]; Table 7, Escherichia coli TEM-3, combination at constant concentration ratio (2:1)) was 32 µg/mL. The MIC ([4]; Table 7, Pseudomonas aeruginosa CARB-3, combination at constant concentration ratio (2:1)) was 2 µg/mL, the MIC ([5]; Table 7, Escherichia coli SHV-3, combination at constant concentration ratio (2:1)) was 2 µg/mL and the MIC ([6]; Table 7, Klebsiella oxytoca K1 hyperproduced, first listed strain, combination at constant concentration ratio (2:1)) was 1 µg/mL. For the same molecule, the MIC ([6]; Table 7, Klebsiella oxytoca K1 hyperproduced, second listed strain, combination at constant concentration ratio (2:1)) was 0.5 µg/mL, the MIC ([7]; Table 7, Escherichia coli TEM-35, combination at constant concentration ratio (2:1)) was 0.25 µg/mL and the MIC ([8]; Table 7, Escherichia coli HMS-1, combination at constant concentration ratio (2:1)) was 0.25 µg/mL. For the same molecule, the MIC ([9]; Table 7, Escherichia coli OXA-3, combination at constant concentration ratio (2:1)) was 0.5 µg/mL, the MIC ([10]; Table 7, Escherichia coli OXA-2, combination at constant concentration ratio (2:1)) was 1 µg/mL and the MIC [13, 25] was 64 µg/mL. For the same molecule, the MIC [14, 25] was 16 µg/mL, the MIC [15, 25] was “≧128 μg/mL” and the MIC [16, 25] was 0.5 µg/mL. The MIC [17, 25] was 8 µg/mL, the MIC [18, 25] was “≧128 μg/mL” and the MIC [19, 25] was 4 µg/mL. The MIC [20, 25] was “≧128 μg/mL”, the MIC [21, 25] was “≧128 μg/mL” and the MIC [11] was 1.6 µg/mL (≈ 2.93 µM). The MIC [22] was 32 to 64 µg/mL (≈ 58.5 to 117 µM), the “susceptibility of the strain to the antibiotic” value [23] was “resistant” and the MIC ([12]; first listed) was greater than 25.6 µg/mL. The MIC ([12]; second listed) was greater than 25.6 µg/mL and the MIC ([12]; third listed) was greater than 25.6 µg/mL.
